Measured values: ChEMBL document CHEMBL3991601, “The target landscape of clinical kinase drugs” (Science, 2017)
The source made the active and inactive calls. Cut-off read from the data, not from the text of the source, for most assays here: actives have a measured Kd and inactives only a lower limit.

Key:
[1] = biological target: TRAF2 and NCK-interacting protein kinase (Homo sapiens, UniProt Q9UKE5)
[2] = biological target: Tyrosine-protein kinase Yes (Homo sapiens, UniProt P07947)
[3] = biological target: T1, Serine/threonine-protein kinase D3 (Homo sapiens, UniProt O94806)
T1 sequence (O94806 whole entry): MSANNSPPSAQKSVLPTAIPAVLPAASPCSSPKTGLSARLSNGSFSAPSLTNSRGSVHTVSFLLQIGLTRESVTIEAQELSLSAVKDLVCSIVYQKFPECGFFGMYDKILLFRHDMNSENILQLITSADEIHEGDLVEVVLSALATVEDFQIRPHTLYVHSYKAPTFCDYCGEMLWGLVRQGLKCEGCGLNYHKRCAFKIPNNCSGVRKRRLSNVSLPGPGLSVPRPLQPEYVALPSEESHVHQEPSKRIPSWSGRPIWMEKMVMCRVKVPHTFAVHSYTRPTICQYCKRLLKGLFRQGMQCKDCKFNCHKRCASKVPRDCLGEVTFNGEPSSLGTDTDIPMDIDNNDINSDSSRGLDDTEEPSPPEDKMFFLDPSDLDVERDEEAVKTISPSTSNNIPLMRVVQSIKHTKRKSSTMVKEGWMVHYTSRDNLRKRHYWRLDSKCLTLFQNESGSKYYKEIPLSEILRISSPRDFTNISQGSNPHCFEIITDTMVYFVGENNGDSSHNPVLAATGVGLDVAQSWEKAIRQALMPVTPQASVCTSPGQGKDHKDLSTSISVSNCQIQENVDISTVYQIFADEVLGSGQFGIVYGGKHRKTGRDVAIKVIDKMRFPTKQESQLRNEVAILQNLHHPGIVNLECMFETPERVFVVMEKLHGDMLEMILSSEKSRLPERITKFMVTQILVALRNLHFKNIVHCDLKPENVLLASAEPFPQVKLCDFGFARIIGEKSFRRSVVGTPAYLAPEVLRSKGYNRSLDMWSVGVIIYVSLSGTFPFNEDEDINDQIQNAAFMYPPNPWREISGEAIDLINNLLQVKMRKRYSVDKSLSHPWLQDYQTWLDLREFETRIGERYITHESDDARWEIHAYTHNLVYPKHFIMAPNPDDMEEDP

[4] = biological target: Cyclin-dependent kinase 12 (Homo sapiens, UniProt Q9NYV4)
Chain of Cyclin-dependent kinase 12 (Q9NYV4 whole entry): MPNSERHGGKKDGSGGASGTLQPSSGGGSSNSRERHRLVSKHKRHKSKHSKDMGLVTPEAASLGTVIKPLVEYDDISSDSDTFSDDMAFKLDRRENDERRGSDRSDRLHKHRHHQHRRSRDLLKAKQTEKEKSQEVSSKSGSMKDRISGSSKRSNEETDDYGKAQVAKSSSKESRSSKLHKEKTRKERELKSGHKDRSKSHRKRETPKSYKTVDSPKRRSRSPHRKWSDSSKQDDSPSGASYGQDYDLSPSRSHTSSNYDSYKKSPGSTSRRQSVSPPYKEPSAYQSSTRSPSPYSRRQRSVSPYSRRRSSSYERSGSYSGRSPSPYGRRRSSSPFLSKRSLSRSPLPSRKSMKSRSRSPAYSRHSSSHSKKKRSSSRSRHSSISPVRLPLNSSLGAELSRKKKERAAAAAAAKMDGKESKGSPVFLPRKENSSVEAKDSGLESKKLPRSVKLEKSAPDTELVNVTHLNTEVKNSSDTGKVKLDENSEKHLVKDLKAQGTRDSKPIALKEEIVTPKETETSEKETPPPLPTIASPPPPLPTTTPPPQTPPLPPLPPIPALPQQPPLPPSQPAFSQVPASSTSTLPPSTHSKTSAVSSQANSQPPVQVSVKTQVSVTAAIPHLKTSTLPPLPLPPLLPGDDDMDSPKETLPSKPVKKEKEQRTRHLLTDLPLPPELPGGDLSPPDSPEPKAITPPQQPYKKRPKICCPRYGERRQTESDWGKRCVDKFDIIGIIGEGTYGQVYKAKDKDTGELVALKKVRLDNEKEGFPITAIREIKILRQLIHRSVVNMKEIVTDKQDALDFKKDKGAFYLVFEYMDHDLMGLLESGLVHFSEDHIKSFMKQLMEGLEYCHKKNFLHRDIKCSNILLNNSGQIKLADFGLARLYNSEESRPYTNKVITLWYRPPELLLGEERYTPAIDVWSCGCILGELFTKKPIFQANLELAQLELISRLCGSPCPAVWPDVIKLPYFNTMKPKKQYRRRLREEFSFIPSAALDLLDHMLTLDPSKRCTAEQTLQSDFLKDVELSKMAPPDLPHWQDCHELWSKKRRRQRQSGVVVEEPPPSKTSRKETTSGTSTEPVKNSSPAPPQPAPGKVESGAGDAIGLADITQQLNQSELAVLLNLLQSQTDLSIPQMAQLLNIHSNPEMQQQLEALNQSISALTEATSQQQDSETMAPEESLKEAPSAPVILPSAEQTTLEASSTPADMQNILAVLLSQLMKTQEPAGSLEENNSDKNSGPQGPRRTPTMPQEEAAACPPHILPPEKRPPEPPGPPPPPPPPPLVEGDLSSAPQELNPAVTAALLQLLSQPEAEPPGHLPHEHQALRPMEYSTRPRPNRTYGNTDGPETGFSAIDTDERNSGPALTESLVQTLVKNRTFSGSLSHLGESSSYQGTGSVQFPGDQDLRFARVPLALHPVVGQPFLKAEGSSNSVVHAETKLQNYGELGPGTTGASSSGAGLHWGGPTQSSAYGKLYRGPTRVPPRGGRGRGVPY

[5] = biological target: MAP/microtubule affinity-regulating kinase 3 (Homo sapiens, UniProt P27448)
[6] = biological target: Inosine-5'-monophosphate dehydrogenase 2 (Homo sapiens, UniProt P12268)
[7] = biological target: GTP-binding nuclear protein Ran (Homo sapiens, UniProt P62826)
[8] = biological target: Casein kinase I isoform delta (Homo sapiens, UniProt P48730)
Chain of Casein kinase I isoform delta (P48730 whole entry, canonical isoform): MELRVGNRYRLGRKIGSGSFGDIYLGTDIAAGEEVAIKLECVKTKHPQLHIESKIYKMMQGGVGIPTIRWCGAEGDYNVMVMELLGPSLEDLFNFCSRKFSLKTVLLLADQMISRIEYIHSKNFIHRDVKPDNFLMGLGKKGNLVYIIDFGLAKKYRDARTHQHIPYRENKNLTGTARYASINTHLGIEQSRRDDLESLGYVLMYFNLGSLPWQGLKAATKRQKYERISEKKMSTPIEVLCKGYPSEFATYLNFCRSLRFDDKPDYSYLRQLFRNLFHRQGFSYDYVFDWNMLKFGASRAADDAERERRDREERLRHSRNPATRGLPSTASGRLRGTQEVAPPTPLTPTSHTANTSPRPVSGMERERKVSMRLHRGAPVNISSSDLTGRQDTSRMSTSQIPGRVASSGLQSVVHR

[9] = biological target: Citron Rho-interacting kinase (Homo sapiens, UniProt O14578)
[10] = biological target: RAC-gamma serine/threonine-protein kinase (Homo sapiens, UniProt Q9Y243)
[11] = biological target: T2, Serine/threonine-protein kinase Nek9 (Homo sapiens, UniProt Q8TD19)
T2 sequence (Q8TD19 whole entry): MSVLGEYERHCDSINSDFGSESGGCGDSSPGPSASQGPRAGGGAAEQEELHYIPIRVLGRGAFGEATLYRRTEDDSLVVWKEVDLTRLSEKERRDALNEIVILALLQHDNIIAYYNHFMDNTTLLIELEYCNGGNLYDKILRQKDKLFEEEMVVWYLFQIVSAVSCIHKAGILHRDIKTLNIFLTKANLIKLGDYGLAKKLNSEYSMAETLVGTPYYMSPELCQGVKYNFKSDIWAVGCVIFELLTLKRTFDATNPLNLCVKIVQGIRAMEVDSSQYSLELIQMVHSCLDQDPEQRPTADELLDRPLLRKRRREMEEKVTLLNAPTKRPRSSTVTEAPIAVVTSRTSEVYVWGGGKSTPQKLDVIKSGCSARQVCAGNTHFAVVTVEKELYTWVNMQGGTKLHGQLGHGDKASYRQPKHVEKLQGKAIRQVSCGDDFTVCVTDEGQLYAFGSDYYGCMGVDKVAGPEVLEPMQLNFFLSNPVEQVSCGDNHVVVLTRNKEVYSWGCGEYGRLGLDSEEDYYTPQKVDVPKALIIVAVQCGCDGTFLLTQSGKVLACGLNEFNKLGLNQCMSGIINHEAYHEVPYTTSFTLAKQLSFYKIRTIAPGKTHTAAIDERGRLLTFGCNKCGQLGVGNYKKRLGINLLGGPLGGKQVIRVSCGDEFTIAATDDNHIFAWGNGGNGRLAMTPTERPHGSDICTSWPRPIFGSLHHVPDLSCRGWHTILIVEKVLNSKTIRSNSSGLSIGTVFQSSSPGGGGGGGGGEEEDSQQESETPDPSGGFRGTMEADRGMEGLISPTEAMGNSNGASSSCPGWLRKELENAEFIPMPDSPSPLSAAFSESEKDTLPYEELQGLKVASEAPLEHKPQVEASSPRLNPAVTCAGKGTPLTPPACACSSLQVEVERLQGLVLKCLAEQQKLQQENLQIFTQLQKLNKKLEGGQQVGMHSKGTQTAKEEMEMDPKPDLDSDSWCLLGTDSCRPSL

Ephrin type-A receptor 7 = Ephrin type-A receptor 7 (Homo sapiens, UniProt Q15375)
Chain of Ephrin type-A receptor 7 (Q15375 whole entry): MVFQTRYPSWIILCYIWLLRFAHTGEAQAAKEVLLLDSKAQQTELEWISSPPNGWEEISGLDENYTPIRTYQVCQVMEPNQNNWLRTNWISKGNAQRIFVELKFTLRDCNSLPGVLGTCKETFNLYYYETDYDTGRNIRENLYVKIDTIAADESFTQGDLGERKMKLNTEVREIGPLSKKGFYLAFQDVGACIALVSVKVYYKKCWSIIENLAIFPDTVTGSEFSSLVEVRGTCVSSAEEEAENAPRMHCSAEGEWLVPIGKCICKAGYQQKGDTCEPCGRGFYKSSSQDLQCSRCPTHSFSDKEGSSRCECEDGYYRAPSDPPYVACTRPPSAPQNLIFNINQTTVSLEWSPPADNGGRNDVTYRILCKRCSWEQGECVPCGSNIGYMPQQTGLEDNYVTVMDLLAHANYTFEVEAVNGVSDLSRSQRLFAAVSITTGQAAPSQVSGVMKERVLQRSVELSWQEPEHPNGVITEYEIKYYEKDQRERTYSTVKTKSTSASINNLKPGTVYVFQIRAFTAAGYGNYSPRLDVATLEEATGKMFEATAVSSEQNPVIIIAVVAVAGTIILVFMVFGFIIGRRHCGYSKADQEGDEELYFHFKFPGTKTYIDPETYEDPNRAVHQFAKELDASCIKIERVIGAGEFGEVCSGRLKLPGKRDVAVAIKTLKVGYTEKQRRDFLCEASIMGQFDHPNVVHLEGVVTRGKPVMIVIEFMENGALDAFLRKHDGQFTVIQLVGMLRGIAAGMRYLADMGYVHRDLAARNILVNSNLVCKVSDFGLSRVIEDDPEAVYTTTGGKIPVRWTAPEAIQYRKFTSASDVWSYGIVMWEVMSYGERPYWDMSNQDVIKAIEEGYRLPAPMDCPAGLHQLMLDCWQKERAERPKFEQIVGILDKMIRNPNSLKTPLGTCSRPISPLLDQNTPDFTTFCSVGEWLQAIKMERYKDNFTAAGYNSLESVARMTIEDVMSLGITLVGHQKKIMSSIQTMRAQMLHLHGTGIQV

[12] = biological target: Serine/threonine-protein kinase B-raf (Homo sapiens, UniProt P15056)
[13] = biological target: T3, Delta(24)-sterol reductase (Homo sapiens, UniProt Q15392)
T3 sequence (Q15392 whole entry): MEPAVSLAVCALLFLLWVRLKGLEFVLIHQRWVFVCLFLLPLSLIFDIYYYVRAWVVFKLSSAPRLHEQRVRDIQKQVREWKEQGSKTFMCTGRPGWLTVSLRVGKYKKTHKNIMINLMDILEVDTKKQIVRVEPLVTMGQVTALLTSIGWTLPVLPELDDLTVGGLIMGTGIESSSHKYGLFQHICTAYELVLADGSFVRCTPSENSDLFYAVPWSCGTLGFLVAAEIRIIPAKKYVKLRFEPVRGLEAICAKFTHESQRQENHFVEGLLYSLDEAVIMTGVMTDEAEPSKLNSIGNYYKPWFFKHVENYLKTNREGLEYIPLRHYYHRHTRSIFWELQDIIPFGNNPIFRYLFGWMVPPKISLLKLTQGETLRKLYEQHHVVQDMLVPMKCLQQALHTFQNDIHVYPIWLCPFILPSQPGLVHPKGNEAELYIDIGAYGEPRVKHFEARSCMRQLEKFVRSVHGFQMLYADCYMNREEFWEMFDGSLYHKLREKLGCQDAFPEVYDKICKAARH
Note: in the data inactive means no Kd found up to 30 µM.

Chain of Tyrosine-protein kinase Yes (P07947 whole entry): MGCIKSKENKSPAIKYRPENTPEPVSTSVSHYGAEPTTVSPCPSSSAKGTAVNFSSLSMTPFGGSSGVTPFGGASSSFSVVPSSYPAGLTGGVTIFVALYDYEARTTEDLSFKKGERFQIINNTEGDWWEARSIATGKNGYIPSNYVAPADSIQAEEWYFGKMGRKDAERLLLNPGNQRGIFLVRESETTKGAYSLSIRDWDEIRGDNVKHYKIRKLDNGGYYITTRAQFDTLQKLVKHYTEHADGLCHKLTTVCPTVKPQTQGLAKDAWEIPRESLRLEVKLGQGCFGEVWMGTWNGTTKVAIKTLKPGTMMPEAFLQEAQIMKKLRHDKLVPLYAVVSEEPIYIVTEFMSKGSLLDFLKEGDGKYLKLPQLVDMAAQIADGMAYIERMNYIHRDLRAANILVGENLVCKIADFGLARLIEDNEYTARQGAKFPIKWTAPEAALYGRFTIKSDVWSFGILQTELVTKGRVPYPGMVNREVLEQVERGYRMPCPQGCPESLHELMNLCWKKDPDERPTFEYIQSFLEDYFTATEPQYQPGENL
Chain of TRAF2 and NCK-interacting protein kinase (Q9UKE5 whole entry): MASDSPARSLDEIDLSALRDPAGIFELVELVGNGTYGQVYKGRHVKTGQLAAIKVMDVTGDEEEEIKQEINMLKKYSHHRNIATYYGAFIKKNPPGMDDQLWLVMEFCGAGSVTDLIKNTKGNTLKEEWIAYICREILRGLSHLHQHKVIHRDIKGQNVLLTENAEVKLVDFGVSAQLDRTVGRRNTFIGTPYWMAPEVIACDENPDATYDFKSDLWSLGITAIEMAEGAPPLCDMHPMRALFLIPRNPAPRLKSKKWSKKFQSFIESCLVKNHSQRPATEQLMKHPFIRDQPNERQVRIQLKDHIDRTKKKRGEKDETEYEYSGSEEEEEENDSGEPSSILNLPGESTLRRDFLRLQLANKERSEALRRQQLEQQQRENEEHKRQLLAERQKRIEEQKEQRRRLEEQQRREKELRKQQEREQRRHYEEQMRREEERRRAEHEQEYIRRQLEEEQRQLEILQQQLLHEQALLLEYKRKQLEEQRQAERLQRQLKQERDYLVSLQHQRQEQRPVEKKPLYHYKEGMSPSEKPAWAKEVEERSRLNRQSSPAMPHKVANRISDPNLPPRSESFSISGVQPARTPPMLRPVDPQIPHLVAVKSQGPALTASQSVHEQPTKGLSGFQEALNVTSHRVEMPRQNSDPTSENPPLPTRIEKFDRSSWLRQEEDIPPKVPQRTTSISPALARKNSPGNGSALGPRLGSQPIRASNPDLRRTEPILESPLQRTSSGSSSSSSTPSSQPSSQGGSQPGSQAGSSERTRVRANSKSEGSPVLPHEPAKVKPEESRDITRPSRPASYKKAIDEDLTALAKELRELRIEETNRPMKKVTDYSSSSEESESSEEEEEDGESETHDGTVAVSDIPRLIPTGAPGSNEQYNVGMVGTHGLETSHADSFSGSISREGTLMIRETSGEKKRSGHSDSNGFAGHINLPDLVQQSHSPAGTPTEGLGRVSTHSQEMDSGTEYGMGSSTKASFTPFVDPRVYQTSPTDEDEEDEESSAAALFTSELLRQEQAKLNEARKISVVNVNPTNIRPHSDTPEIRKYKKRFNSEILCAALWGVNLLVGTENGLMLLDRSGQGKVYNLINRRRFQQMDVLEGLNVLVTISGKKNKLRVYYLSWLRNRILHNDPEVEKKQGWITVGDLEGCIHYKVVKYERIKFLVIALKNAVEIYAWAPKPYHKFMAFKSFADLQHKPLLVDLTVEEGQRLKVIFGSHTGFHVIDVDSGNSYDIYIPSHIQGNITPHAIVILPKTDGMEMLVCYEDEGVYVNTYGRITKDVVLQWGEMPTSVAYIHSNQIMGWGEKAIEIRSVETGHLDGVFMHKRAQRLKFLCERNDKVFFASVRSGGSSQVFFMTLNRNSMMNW

SMILES | Kd [1] | Kd [2] | Kd [3] | Kd [4] | Kd [5] | Kd [6] | Kd [7] | Kd [8] | Kd [9] | Kd [10] | Kd [11] | Kd (Ephrin type-A receptor 7) | Kd [12] | Kd [13]
COc1cc2ncnc3c2cc1OCCCCCN(C)Cc1ccc(Br)cc1N3 [JNJ-26483327] | > 30 µM (inactive) | > 30 µM (inactive) | > 30 µM (inactive) | > 30 µM (inactive) | > 30 µM (inactive) | > 30 µM (inactive) | > 30 µM (inactive) | > 30 µM (inactive) | > 30 µM (inactive) | 0.006 µM | > 30 µM (inactive) | > 30 µM (inactive) | – | –
C=CCn1c(=O)c2cnc(Nc3ccc(N4CCN(C)CC4)cc3)nc2n1-c1cccc(C(C)(C)O)n1 [ADAVOSERTIB] | > 30 µM (inactive) | > 30 µM (inactive) | – | > 30 µM (inactive) | > 30 µM (inactive) | > 30 µM (inactive) | > 30 µM (inactive) | > 30 µM (inactive) | > 30 µM (inactive) | > 30 µM (inactive) | > 30 µM (inactive) | > 30 µM (inactive) | > 30 µM (inactive) | > 30 µM (inactive)
O=C(NOC[C@H](O)CO)c1ccc(F)c(F)c1Nc1ccc(I)cc1F [MIRDAMETINIB] | > 30 µM (inactive) | > 30 µM (inactive) | > 30 µM (inactive) | > 30 µM (inactive) | > 30 µM (inactive) | > 30 µM (inactive) | > 30 µM (inactive) | > 30 µM (inactive) | > 30 µM (inactive) | > 30 µM (inactive) | > 30 µM (inactive) | – | – | > 30 µM (inactive)
C=CC(=O)Nc1cccc(Nc2nc(Nc3ccc(N4CCN(C(C)=O)CC4)cc3OC)ncc2C(F)(F)F)c1 [ROCILETINIB] | > 30 µM (inactive) | > 30 µM (inactive) | > 30 µM (inactive) | > 30 µM (inactive) | > 30 µM (inactive) | > 30 µM (inactive) | > 30 µM (inactive) | > 30 µM (inactive) | > 30 µM (inactive) | > 30 µM (inactive) | > 30 µM (inactive) | > 30 µM (inactive) | – | > 30 µM (inactive)
Cc1ccc(C(=O)Nc2ccc(Oc3cc4cnn(C)c4cc3-c3cn[nH]c3)c(F)c2)c(=O)n1-c1ccc(F)cc1 [MERESTINIB] | > 30 µM (inactive) | > 30 µM (inactive) | > 30 µM (inactive) | > 30 µM (inactive) | > 30 µM (inactive) | > 30 µM (inactive) | > 30 µM (inactive) | > 30 µM (inactive) | > 30 µM (inactive) | > 30 µM (inactive) | > 30 µM (inactive) | > 30 µM (inactive) | – | > 30 µM (inactive)
CCOc1ccn(-c2ccc(F)cc2)c(=O)c1C(=O)Nc1ccc(Oc2ccnc(N)c2Cl)c(F)c1 [BMS-777607] | > 30 µM (inactive) | > 30 µM (inactive) | > 30 µM (inactive) | > 30 µM (inactive) | > 30 µM (inactive) | > 30 µM (inactive) | > 30 µM (inactive) | > 30 µM (inactive) | > 30 µM (inactive) | > 30 µM (inactive) | > 30 µM (inactive) | > 30 µM (inactive) | – | > 30 µM (inactive)
COc1cc2ncnc(Nc3ccc(O)cc3)c2cc1OC [WHI-P131] | > 30 µM (inactive) | > 30 µM (inactive) | > 30 µM (inactive) | > 30 µM (inactive) | > 30 µM (inactive) | > 30 µM (inactive) | > 30 µM (inactive) | > 30 µM (inactive) | > 30 µM (inactive) | > 30 µM (inactive) | > 30 µM (inactive) | > 30 µM (inactive) | – | > 30 µM (inactive)
O=S(=O)(c1cccc2cnccc12)N1CCCNCC1 [FASUDIL] | > 30 µM (inactive) | > 30 µM (inactive) | – | 3.48 µM (active) | > 30 µM (inactive) | > 30 µM (inactive) | – | – | 48.9 µM (active) | – | > 30 µM (inactive) | > 30 µM (inactive) | > 30 µM (inactive) | > 30 µM (inactive)
COc1ccc(-c2ccc3ncc4c(c3c2)n(-c2ccc(N3CCNCC3)c(C(F)(F)F)c2)c(=O)n4C)cn1 [BGT-226 FREE BASE] | – | > 30 µM (inactive) | > 30 µM (inactive) | > 30 µM (inactive) | > 30 µM (inactive) | > 30 µM (inactive) | > 30 µM (inactive) | > 30 µM (inactive) | > 30 µM (inactive) | > 30 µM (inactive) | > 30 µM (inactive) | – | > 30 µM (inactive) | > 30 µM (inactive)
O=S(=O)(c1cccc2c(O)nccc12)N1CCCNCC1 [HYDROXYFASUDIL] | > 30 µM (inactive) | > 30 µM (inactive) | > 30 µM (inactive) | > 30 µM (inactive) | > 30 µM (inactive) | > 30 µM (inactive) | > 30 µM (inactive) | > 30 µM (inactive) | > 30 µM (inactive) | > 30 µM (inactive) | > 30 µM (inactive) | > 30 µM (inactive) | – | > 30 µM (inactive)
CC(C)CC(=O)Nc1[nH]nc2c1CN(C(=O)C1CCN(C)CC1)C2(C)C [PHA-793887] | – | > 30 µM (inactive) | 0.065 µM (active) | 3.66 µM (active) | > 30 µM (inactive) | > 30 µM (inactive) | > 30 µM (inactive) | > 30 µM (inactive) | > 30 µM (inactive) | > 30 µM (inactive) | > 30 µM (inactive) | – | > 30 µM (inactive) | > 30 µM (inactive)
